In US20210077529A1, “T-CELL EXHAUSTION, METHODS & COMPOSITIONS RELATING THERETO” (MEMORIAL SLOAN KETTERING CANCER CENTER, priority 2018, published 2021):
Entries after “also recorded” stand apart in the source; their conditions may differ.

Legend:
Format in all cases: cell-based, mouse
[1] = system: exhausted CAR-T cells; assay: Cytokine production of exhausted CAR-T cells; settings: exhausted CD19 CAR-T cells isolated 14 days after transfer; 10 mM
Text: (§1) FIG. 15A-C N-acetylcysteine reverses CAR-T cell exhaustion. Exhausted CAR-T cells were generated by transferring CD19-specific CAR-T cells into mice bearing CD19-expressing A20 lymphoma cells. After 14 days, CAR-T cells were isolated from mouse spleens and interrogated for proliferative capacity, oxidative stress, and cytokine production. […] The in vitro system that developed and described herein allowed for metabolic evaluations that led directly to the identification of oxidative stress as a hallmark of T-cell exhaustion. We therefore evaluated whether adding N-acetylcysteine (10 mM) to T-cell media every 48 hours during days 2-8 of chronic stimulation would be sufficient to reverse the effects of chronic stimulation on T-cell growth and effector function. […] FIGS. 12-16. Moreover, this strategy was also effective in reversing the exhaustion of chimeric antigen receptor (CAR) T-cells. For this assay, T-cells retrovirally infected to express a chimeric antigen receptor targeting CD19 were adoptively transferred into mice who had previously received A20 B-cell lymphoma cells. This protocol is known to generate “exhausted” CAR T-cells by Day 14 following CAR T-cell transfer. […] FIG. 16. To determine this, T-cells that had been acutely or chronically stimulated in the presence or absence of 10 mM N-acetylcysteine were assessed for Tcf7 expression via real-time quantitative PCR. […]

[2] = system: chronically stimulated T-cells; assay: Proliferation of chronically stimulated T-cells (polyclonal in vitro exhaustion model, Coulter counter counts); settings: CD3+ T cells, chronic anti-CD3/anti-CD28 stimulation days 2-8, 10 mM N-acetylcysteine
Procedure: FIG. 13A-B. N-acetylcysteine restores proliferation of chronically stimulated T-cells. FIG. 13A—schematic representation of model/method. Isolated CD3+ T cells were stimulated for 2 days with plate-bound anti-CD3 and anti-CD28. Following 2-day stimulation, cells were either incubated in IL-2 alone or serially re-plated on plates coated with anti-CD3 and anti-CD28 every 2 days for an additional 6 days in the presence or absence of 10 mM N-acetylcysteine. Cells were counted every 2 days using a Coulter counter. […] FIG. 3A and FIG. 3F provide schematic representations of a polyclonal T cell exhaustion model in which a generalized TCR and CD28 stimulus is used. Utilizing a generalized TCR and CD28 stimulus has multiple advantages. […] We therefore evaluated whether adding N-acetylcysteine (10 mM) to T-cell media every 48 hours during days 2-8 of chronic stimulation would be sufficient to reverse the effects of chronic stimulation on T-cell growth and effector function. […] To determine this, T-cells that had been acutely or chronically stimulated in the presence or absence of 10 mM N-acetylcysteine were assessed for Tcf7 expression via real-time quantitative PCR. […]

[3] = system: chronically stimulated T-cells; assay: Intracellular ophthalmate levels in chronically stimulated T-cells (LC-MS); settings: chronically stimulated CD3+ T cells, 8 days, 10 mM N-acetylcysteine
Procedure: FIG. 18A-C. Ophthalmate is a biomarker for oxidative stress in exhausted T-cells and is reversed by N-acetylcysteine. Isolated CD3+ T cells were stimulated acutely or chronically as described herein in the presence or absence of N-acetylcysteine (10 mM). After 8 days, cells were analyzed for intracellular ophthalmate levels by LC-MS. […] Ophthalmate levels were higher in chronically stimulated T-cells (FIG. 18B) and this was reversed by administration of N-acetylcysteine (FIG. 18C).

[4] = system: chronically stimulated T-cells; assay: Cytokine production of chronically stimulated T-cells after re-stimulation (flow cytometry); settings: CD3+ T cells, 8 days of culture, N-acetylcysteine 10 mM
Procedure: (§2) FIG. 14A-D. N-acetylcysteine reverses endogenous T-cell exhaustion. Isolated CD3+ T cells were stimulated acutely or chronically as described elsewhere herein in the without anti-PD-L1 (FIG. 14A) or in presence or absence of anti-PD-L1 (FIG. 14B) and/or N-acetylcysteine (10 mM) (FIG. 14C). Following 8 days of culture, cells were re-stimulated for cytokine production (above) or co-cultured with tumor cells expressing specific antigen.
The expression of the inhibitory receptors PD-1, LAG-3, and PD-L1 and the effector cytokines IFNγ, TNFα and IL2 was analyzed by flow cytometry. Briefly, cells that were stimulated acutely or chronically for 8 days as described herein were re-stimulated after overnight rest using 50 ng/mL phorbol myristate acetate (PMA) and 500 ng/mL ionomycin. […]
The in vitro system that developed and described herein allowed for metabolic evaluations that led directly to the identification of oxidative stress as a hallmark of T-cell exhaustion. We therefore evaluated whether adding N-acetylcysteine (10 mM) to T-cell media every 48 hours during days 2-8 of chronic stimulation would be sufficient to reverse the effects of chronic stimulation on T-cell growth and effector function. […] To determine this, T-cells that had been acutely or chronically stimulated in the presence or absence of 10 mM N-acetylcysteine were assessed for Tcf7 expression via real-time quantitative PCR. […]

[5] = system: tumor cells expressing specific antigen; assay: Killing of tumor cells expressing specific antigen by chronically stimulated T-cells (co-culture)
Procedure: as §2
Ultimately, the hallmark of T-cell exhaustion in the context of both chronic viral infections and cancer requires a loss of effector function, defined as the absence of target cell killing. Therefore, it was imperative to establish that exhausted cells generated using this in vitro system were not able to kill target cells. […] 24 hours later luminescence was measured using a luminometer. Killing efficacy was determined by luminescence relative to B16 cells co-cultured with T-cells in the absence of specific peptide.
The in vitro system that developed and described herein allowed for metabolic evaluations that led directly to the identification of oxidative stress as a hallmark of T-cell exhaustion. We therefore evaluated whether adding N-acetylcysteine (10 mM) to T-cell media every 48 hours during days 2-8 of chronic stimulation would be sufficient to reverse the effects of chronic stimulation on T-cell growth and effector function. […]

[6] = system: exhausted CAR-T cells; assay: Oxidative stress (reactive oxygen species) in exhausted CAR-T cells; settings: exhausted CD19 CAR-T cells isolated 14 days after transfer, re-stimulated with anti-CD3 and anti-CD28; 10 mM
Text: as §1

[7] = system: Tcf7; assay: Tcf7 expression in chronically stimulated T-cells (real-time quantitative PCR); settings: chronically stimulated CD3+ T cells, 8 days, 10 mM N-acetylcysteine
Text: FIG. 16A-B. N-acetylcysteine restores T-cell memory. Isolated CD3+ T cells were stimulated acutely or chronically as described herein. […] Tumor-infiltrating T-cells from patients with melanoma who received checkpoint inhibitors were extracted and analyzed by single-cell RNA-seq. […] The in vitro system that developed and described herein allowed for metabolic evaluations that led directly to the identification of oxidative stress as a hallmark of T-cell exhaustion. We therefore evaluated whether adding N-acetylcysteine (10 mM) to T-cell media every 48 hours during days 2-8 of chronic stimulation would be sufficient to reverse the effects of chronic stimulation on T-cell growth and effector function. […] FIGS. 12-16. Moreover, this strategy was also effective in reversing the exhaustion of chimeric antigen receptor (CAR) T-cells. For this assay, T-cells retrovirally infected to express a chimeric antigen receptor targeting CD19 were adoptively transferred into mice who had previously received A20 B-cell lymphoma cells. This protocol is known to generate “exhausted” CAR T-cells by Day 14 following CAR T-cell transfer. […] FIG. 16. To determine this, T-cells that had been acutely or chronically stimulated in the presence or absence of 10 mM N-acetylcysteine were assessed for Tcf7 expression via real-time quantitative PCR. […]

[8] = system: exhausted CAR-T cells; assay: Proliferative capacity of exhausted CD19-specific CAR-T cells isolated from lymphoma-bearing mice; settings: exhausted CD19 CAR-T cells isolated 14 days after transfer into A20 lymphoma mice; 10 mM in culture media
Text: as §1

What does the source list for CC(=O)N[C@@H](CS)C(=O)O [N-acetylcysteine]?
CAR-T cell cytokine production [1]: enhanced; also recorded: allowed CAR T-cells to proliferate and produce cytokine; T-cell proliferation under chronic stimulation [2]: fully reverses the impairment in proliferation; also recorded: fully reverse; intracellular ophthalmate levels [3]: reversed; cytokine production of chronically stimulated T-cells [4]: effectively reversed; also recorded: fully reverse; anti-PD-1 responsiveness of chronically stimulated T-cells ([5]; 10 mM N-acetylcysteine every 48 hours during days 2-8 of chronic stimulation): fully restored; tumor / target cell killing by chronically stimulated T-cells ([5]; 8 days of culture, co-cultured with tumor cells expressing specific antigen, N-acetylcysteine 10 mM): effectively reversed; also recorded: fully restored; oxidative stress (reactive oxygen species) in CAR-T cells [6]: reducing oxidative stress; also recorded: could be reversed; Tcf7 expression (memory marker) [7]: restored Tcf7 expression; also recorded: largely restored; CAR-T cell proliferation [8]: enhanced CAR-T cell proliferation; also recorded: allowed CAR T-cells to proliferate
